The test deals with PDE10A (Homo sapiens (Human), UniProt Q9Y233). The settings on record: read-out: Inhibition of PDE10A, IC50.

Where only a bound is given, the exact number is not on record here.

By IC50 is commonly meant the concentration needed to halve the response being measured.

PDE10A, sequence (Q9Y233 other isoform, or with tags, fused parts or gaps): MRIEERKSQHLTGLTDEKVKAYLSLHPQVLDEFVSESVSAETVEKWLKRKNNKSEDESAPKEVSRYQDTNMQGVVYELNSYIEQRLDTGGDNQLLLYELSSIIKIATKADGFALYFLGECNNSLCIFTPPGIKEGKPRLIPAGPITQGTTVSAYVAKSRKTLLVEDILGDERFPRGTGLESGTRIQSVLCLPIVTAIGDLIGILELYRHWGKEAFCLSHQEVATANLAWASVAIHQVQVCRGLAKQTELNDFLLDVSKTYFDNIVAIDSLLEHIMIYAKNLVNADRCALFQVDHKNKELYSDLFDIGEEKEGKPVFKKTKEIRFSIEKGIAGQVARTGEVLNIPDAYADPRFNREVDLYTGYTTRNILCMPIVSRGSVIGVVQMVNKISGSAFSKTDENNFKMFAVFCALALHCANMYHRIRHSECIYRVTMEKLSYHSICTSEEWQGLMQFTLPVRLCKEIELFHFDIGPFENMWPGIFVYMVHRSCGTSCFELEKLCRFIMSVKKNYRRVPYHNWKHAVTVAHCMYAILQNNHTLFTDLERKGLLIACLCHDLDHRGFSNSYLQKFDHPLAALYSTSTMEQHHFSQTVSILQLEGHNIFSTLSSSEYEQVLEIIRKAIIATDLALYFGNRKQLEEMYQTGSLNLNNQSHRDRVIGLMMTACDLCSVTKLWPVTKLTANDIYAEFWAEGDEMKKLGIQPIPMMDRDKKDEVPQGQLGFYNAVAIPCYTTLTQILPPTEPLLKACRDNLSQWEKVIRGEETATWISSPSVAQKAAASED
Protocol: Inhibition of Recombinant PDE10A (Expressed in Baculovirus/SF21 Cells)
PDE activity was determined in a one step procedure in microtiter plates. The reaction mixture of 100 μl contained 50 mM Tris-HCl/5 mM MgCl2 buffer (pH=7.4, Sigma, Deisenhofen, Germany; Merck, Darmstadt, Germany) 0.1 μM [3H]-cAMP (PerkinElmer, Shelton, USA) and the enzyme. Non-specific enzyme activity was determined without the enzyme.
The reaction was initiated by addition of the substrate solution and was carried out at 37° C. for 30 minutes. Enzymatic activity then was stopped by addition of 25 μl Ysi-SPA-beads (PerkinElmer, Shelton, USA). One h later the mixture was measured in a liquid scintillation counter for microtiter plates (Microbeta Trilux). The Biomek 2000 (Beckman) was used routinely for pipetting of the incubation mixture. […] For determination of IC50 values the Hill-plot, 2-parameter-model, was used.

For the compound `Cc1nc2ccc(Cl)cc2n2c(-c3ccccc3Cl)nnc12` [Example 1, 8-Chloro-1-(2-chloro-phenyl)-4-methyl-[1,2,4]triazolo[4,3-a]quinoxaline], the IC50 was 45 nM.
The figure for `Cc1nc2ccc(Cl)cc2n2c(-c3ccccc3F)nnc12` [Example 2, 8-Chloro-1-(2-fluoro-phenyl)-4-methyl-[1,2,4]triazolo[4,3-a]quinoxaline] is 214 nM; for `Cc1ncccc1-c1nnc2c(C)nc3ccc(Cl)cc3n12` [Example 5, 8-Chloro-4-methyl-1-(2-methyl-pyridin-3-yl)-[1,2,4]triazolo[4,3-a]quinoxaline] it is 383 nM; for `Cc1nc2ccc(Cl)cc2n2c(-c3cc(Cl)ccc3Cl)nnc12` [Example 6, 8-Chloro-1-(2,5-dichloro-phenyl)-4-methyl-[1,2,4]triazolo[4,3-a]quinoxaline] it is 131 nM.
Regarding `COc1ccc(Cl)c(-c2nnc3c(C)nc4ccc(Cl)cc4n23)c1` [Example 7, 8-Chloro-1-(2-chloro-5-methoxy-phenyl)-4-methyl-[1,2,4]triazolo[4,3-a]quinoxaline], the IC50 is 104 nM.
For `Cc1cnccc1-c1nnc2c(C)nc3ccc(Cl)cc3n12` [Example 9, 8-Chloro-4-methyl-1-(3-methyl-pyridin-4-yl)-[1,2,4]triazolo[4,3-a]quinoxaline], the IC50 was determined as 736 nM.
Regarding `Cc1nc2ccc(Cl)cc2n2c(-c3cc(C(F)(F)F)ccc3Cl)nnc12` [Example 10, 8-Chloro-1-(2-chloro-5-trifluoromethyl-phenyl)-4-methyl-[1,2,4]triazolo[4,3-a]quinoxaline], the IC50 is more than 1000 nM.
For `CCCCOc1ccc(F)c(-c2nnc3c(C)nc4ccc(Cl)cc4n23)c1` [Example 11, 1-(5-Butoxy-2-fluoro-phenyl)-8-chloro-4-methyl-[1,2,4]triazolo[4,3-a]quinoxaline] the value was more than 1000 nM; for `CCCCOc1ccc(Cl)c(-c2nnc3c(C)nc4ccc(Cl)cc4n23)c1` [Example 12, 1-(5-Butoxy-2-chloro-phenyl)-8-chloro-4-methyl-[1,2,4]triazolo[4,3-a]quinoxaline], more than 1000 nM.
As for `CCCCCCOc1ccc(C)c(-c2nnc3c(C)nc4ccc(Cl)cc4n23)c1` [Example 15, 8-Chloro-1-(5-hexyloxy-2-methyl-phenyl)-4-methyl-[1,2,4]triazolo[4,3-a]quinoxaline], the IC50 was more than 1000 nM.
As to `Cc1nc2ccc(Cl)cc2n2c(-c3cc(OCCCC(F)(F)F)ccc3Cl)nnc12` [Example 16, 8-Chloro-1-[2-chloro-5-(4,4,4-trifluoro-butoxy)-phenyl]-4-methyl-[1,2,4]triazolo[4,3-a]quinoxaline], the IC50 was more than 1000 nM.
Take `Cc1nc2ccc(Cl)cc2n2c(-c3cc(OCCCCF)ccc3F)nnc12` [Example 17, 8-Chloro-1-[2-fluoro-5-(4-fluoro-butoxy)-phenyl]-4-methyl-[1,2,4]triazolo[4,3-a]quinoxaline]: the IC50 was more than 1000 nM.
`Cc1nc2cc(Cl)ccc2n2c(-c3c(F)cccc3F)nnc12` [Example 18, 7-Chloro-1-(2,6-difluoro-phenyl)-4-methyl-[1,2,4]triazolo[4,3-a]quinoxaline]: the half-maximal inhibitory concentration (IC50) amounted to 103 nM.
For `Cc1nc2cc(Cl)ccc2n2c(-c3cc(Cl)ccc3Cl)nnc12` [Example 19, 7-Chloro-1-(2,5-dichloro-phenyl)-4-methyl-[1,2,4]triazolo[4,3-a]quinoxaline] the value was more than 1000 nM.
For `Cc1nc2cc(Cl)ccc2n2c(-c3cc(C(F)(F)F)ccc3Cl)nnc12` [Example 21, 7-Chloro-1-(2-chloro-5-trifluoromethyl-phenyl)-4-methyl-[1,2,4]triazolo[4,3-a]quinoxaline] the value was more than 1000 nM; for `CCCCOc1ccc(F)c(-c2nnc3c(C)nc4cc(Cl)ccc4n23)c1` [Example 22, 1-(5-Butoxy-2-fluoro-phenyl)-7-chloro-4-methyl-[1,2,4]triazolo[4,3-a]quinoxaline], more than 1000 nM.

Source of the values: US9540379B2 (priority 2011, dated 2017).
